Experiments:
Type in all cases: cell-based
[1] = system: primary human fibroblasts derived from IPF patients (LL29 cells); experiment: Inhibition of fibrotic process: αSMA staining in TGF-β1 treated LL29 fibroblasts; conditions: Fibroblast, 96 h, TGF-β1 20 ng/mL, 4 days, % cells positive for αSMA
Description: Representative compounds were screened using primary human fibroblasts (derived from IPF patients) treated with TGF-β1 to determine their ability to inhibit the fibrotic process.
Human Fibroblast Cell Culture: Primary human fibroblasts derived from IPF patients (LL29 cells) [^1Xiaoqiu Liu, et. al., “Fibrotic Lung Fibroblasts Show Blunted Inhibition by cAMP Due to Deficient cAMP Response Element-Binding Protein Phosphorylation”, Journal of Pharmacology and Experimental Therapeutics (2005), 315(2), 678-687; ^2Watts, K. L., et. al., “RhoA signaling modulates cyclin D1 expression in human lung fibroblasts; implications for idiopathic pulmonary fibrosis”, Respiratory Research (2006), 7(1), 88] were obtained from American Type Culture Collection (ATCC) and expanded in F12 medium supplemented with 15% Fetal Bovine Serum and Penicillin/Streptomycin.
Compound Screening: Each compound was dissolved in DMSO as a 10 mM stock and used to prepare compound source plates. Serial dilution (1:2, 11-point dose-response curves from […]) and compound transfer was performed using the ECHO 550 (Labcyte, Sunnyvale, Calif.) into 384-well clear bottom assay plates (Greiner Bio-One) with appropriate DMSO backfill for a final DMSO concentration of 0.1%. LL29 cells are plated at 1,500 cells/well in 80 μL/well F12 medium supplemented with 1% Fetal Bovine Serum. One hour after addition of the cells, TGF-β1 (Peprotech; 20 ng/mL) was added to the plates to induce fibrosis (ref. 1 and 2 above). Wells treated with TGF-β1 and containing DMSO were used as controls. Cells were incubated at 37° C. and 5% CO2 for 4 days. Following incubation for 4 days, SYTOX green nucleic acid stain (Life Technologies [Thermo Fisher Scientific]) was added to the wells at a final concentration of 1 μM and incubated at room temperature for 30 min. Cells were then fixed using 4% formaldehyde (Electron Microscopy Sciences), washed 3 times with PBS followed by blocking and permeabilization using 3% Bovine Serum Albumin (BSA; Sigma) and 0.3% Triton X-100 (Sigma) in PBS. Cells were then stained with antibody specific to α-smooth muscle actin (αSMA; Abcam) (ref. 1 and 2 above) in 3% Bovine Serum Albumin (BSA; Sigma) and 0.3% Triton X-100 (Sigma) in PBS, and incubated overnight at 4° C. Cells were then washed 3 times with PBS, followed by incubation with Alexa Flor-647 conjugated secondary antibody (Life Technologies [Thermo Fisher Scientific]) and DAPI at room temperature for 1 hour. Cells were then washed 3 times with PBS and plates were sealed for imaging. αSMA staining was imaged by excitation at 630 nm and emission at 665 nm and quantified using the Compartmental Analysis program on the CellInsight CX5 (Thermo Scientific). Dead or apoptotic cells were excluded from analysis based on positive SYTOX green staining. % of total cells positive for αSMA were counted in each well and normalized to the average of 11 wells treated with TGF-β1 on the same plate using Dotmatics' Studies Software. The normalized averages (fold change over untreated) of 3 replicate wells for each compound concentration were used to create dose-responses curves and EC50 values were calculated using non-linear regression curve fit in the Dotmatics' Studies Software. For EC50 of >10 μM, the percent inhibition at 10 μM is provided.

[2] = system: Wnt activity (Sp5-Luc reporter, SW480 colon carcinoma cells); experiment: Sp5-Luc reporter gene screening assay for Wnt activity in SW480 cells; conditions: Homo sapiens, luminescence, overnight incubation
Description: The screening assay for Wnt activity is described as follows. Reporter cell lines can be generated by stably transducing cancer cell lines (e.g., colon cancer) or primary cells (e.g., IEC-6 intestinal cells) with a lentiviral construct that includes a Wnt-responsive promoter driving expression of the firefly luciferase gene.
SW480 colon carcinoma cells were transduced with a lentiviral vector expressing luciferase with a human Sp5 promoter consisting of a sequence of eight TCF/LEF binding sites. SW480 cells stably expressing the Sp5-Luc reporter gene and a hygromycin resistance gene were selected by treatment with 150 μg/mL of hygromycin for 7 days. These stably transduced SW480 cells were expanded in cell culture and used for all further screening activities. Each compound was dissolved in DMSO as a 10 mM stock and used to prepare compound source plates. Serial dilution (1:3, 10-point dose-response curves starting from 10 μM) and compound transfer was performed using the ECHO 550 (Labcyte, Sunnyvale, Calif.) into 384-well white solid bottom assay plates (Greiner Bio-One) with appropriate DMSO backfill for a final DMSO concentration of 0.1%. For Sp5-Luc reporter gene assays, the cells were plated at 4,000 cells/well in 384-well plates with medium containing 1% fetal bovine serum and incubated overnight at 37° C. and 5% CO2. Following incubation, 20 μl of BrightGlo luminescence reagent (Promega) was added to each well of the 384-well assay plates. The plates were placed on an orbital shaker for 2 min and then luminescence was quantified using the Envision (Perkin Elmer) plate reader. Readings were normalized to DMSO only treated cells, and normalized activities were utilized for EC50 calculations using the dose-response log (inhibitor) vs. response-variable slope (four parameters) nonlinear regression feature available in GraphPad Prism 5.0 (or Dotmatics). For EC50 of >10 μM, the percent inhibition at 10 μM is provided.

SW480 colon cancer cells = experiment: Cell viability assay (CellTiter-Blue) in SW480 colon cancer cells; conditions: Homo sapiens, 96 h, four days, CellTiter-Blue
Experimental: Representative compounds were screened using the following assay procedure to assess the effect on cell viability as described below.
Each compound was dissolved in DMSO as a 10 mM stock and used to prepare compound source plates. Serial dilution (1:3, 8-point dose-response curves from 10 μM to 0.0045 μM) and compound transfer was performed using the ECHO 550 (Labcyte, Sunnyvale, Calif.) into 96-well clear bottom, black-walled plates (Corning-Costar).
Approximately 2×10^3 SW480 colon cancer cells were seeded into each well and allowed to incubate in the presence or absence of compound for four days at 37° C./5% CO2. Eight replicates of DMSO-treated cells served as controls and cells treated with compound were performed in duplicate.
After incubation, 20 μL of CellTiter-Blue (Promega) was added to each well allowed to incubate for approximately 3 hours. This reagent was a buffered solution which contains resazurin, metabolically active cells were able to reduce rezarurin (blue) into resorufin (pink) which was highly fluorescent. This measured fluorescence was used as a readout for cell viability.
After incubation, the plates were read at Ex 560 nm Em 590 nm (Cytation 3, BioTek). Dose-response curves were generated and EC50 concentration values were calculated using non-linear regression curve fit in the GraphPad Prism (San Diego, Calif.) or Dotmatics' Studies Software (Bishops Stortford, UK). For EC50 of >10 μM, the percent inhibition at 10 μM is provided.

IL-6 = IL-6 inhibition in LPS-stimulated THP-1 cells (HTRF); conditions: Homo sapiens, LPS 500 ng/mL, 22 hours, IL6 HTRF
Experimental: Human Monocyte Cell Culture: Human monocyte cell line (THP-1 cells; Catalog # TIB-202, ATCC, Manassas, Va.) were cultured in Roswell Park Memorial Institute (RPMI) 1640 Medium (Catalog #21870-100, Buffalo, N.Y.) with 1% L-glutamine, 1% HEPES, 1% Sodium Pyruvate, 2% Sodium Bicarbonate supplemented with 100 units/mL penicillin, 50 μg/mL streptomycin, 2-mercaptoethanol (0.05 mM) [basal medium] and 10% fetal bovine serum (Catalog #16140089, Life Technologies, Carlsbad, Calif.) at 37° C. and 5% CO2.
Compound Screening: THP-1 cells were cultured in basal media with 1% FBS for 24 hours before the start of the assay. Each compound was dissolved in DMSO as a 10 mM stock and used to prepare compound source plates. Serial dilution (1:3, 10-point dose-response curves starting from 1 μM) and compound transfer was performed using the ECHO 550 (Labcyte, Sunnyvale, Calif.) into 384-well white low volume assay plates (Greiner Bio-One) with appropriate DMSO backfill for a final DMSO concentration of 0.1%. THP-1 cells were plated at 5000 cells/well in the 384-well plates and incubated at 37° C. for 2 h. 500 ng/mL of LPS was added after 2 hours and cells were incubated for another 22 hours at 37° C. Plates were spun in a centrifuge for 1 minute at 10,000 rpm and a mixture of anti-IL6 XL665, and anti-IL6 Cryptate diluted in reconstitution buffer (Cisbio Inc.) was added to each well. Following incubation for 3 hrs at room temperature, Homogeneous Time-Resolved Fluorescence (HTRF) was measured using the Envision (Perkin Elmer) at 665 nm and […]. The ratio of fluorescence at 665 nm to 620 nm was used as a readout for IL6 quantification. All samples were processed in duplicate. Readings were normalized to DMSO treated cells and normalized activities were utilized for EC50 calculations using the dose-response log (inhibitor) vs. response-variable slope (four parameters) nonlinear regression feature available in GraphPad Prism 5.0 (or Dotmatics). For EC50 of >10 μM, the percent inhibition at 10 μM is provided.

EC50 [2]: 150 nM | EC50 (SW480 colon cancer cells): 457 nM | EC50 (IL-6): 1790 nM
SMILES: Oc1cncc(-c2ccc3[nH]nc(-c4cc5c(-c6cccs6)nccc5[nH]4)c3n2)c1 [Compound 709, 5-(3-(4-(Thiophen-2-yl)-1H-pyrrolo[3,2-c]pyridin-2-yl)-1H-pyrazolo[4,3-b]pyridin-5-yl)pyridin-3-ol]
EC50 [1]: 34 nM
